Test results as given in PubChem BioAssay (NCI).
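Compound exposure: 48 hours, 5 concentrations, 96-well plates. GI50 marks 50% less growth. Definition used: TGI = concentration required for complete inhibition of growth.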

What was measured:
Test in all cases: inhibition of tumour cell growth, NCI panel, 48 h
NCI-H23 lung = test system: NCI-H23 lung
HCT-116 colon = test system: HCT-116 colon
CAKI-1 renal = test system: CAKI-1 renal
U251 CNS = test system: U251 CNS
TK-10 renal = test system: TK-10 renal
HT29 colon = test system: HT29 colon
SW-620 colon = test system: SW-620 colon
CCRF-CEM leukemia = test system: CCRF-CEM leukemia
IGROV1 ovarian = test system: IGROV1 ovarian
KM12 colon = test system: KM12 colon

Row | SMILES | TGI (NCI-H23 lung) | TGI (HCT-116 colon) | TGI (CAKI-1 renal) | TGI (U251 CNS) | TGI (TK-10 renal) | TGI (HT29 colon) | TGI (SW-620 colon) | TGI (CCRF-CEM leukemia) | TGI (IGROV1 ovarian) | GI50 (NCI-H23 lung) | GI50 (CAKI-1 renal) | GI50 (U251 CNS) | GI50 (KM12 colon) | TGI (KM12 colon) | GI50 (TK-10 renal) | GI50 (HT29 colon) | GI50 (SW-620 colon) | GI50 (CCRF-CEM leukemia) | GI50 (IGROV1 ovarian) | GI50 (HCT-116 colon)
1 | CP(=O)(CCSc1ccccc1)c1ccccc1 (stereo not drawn) | > 100 µM | > 100 µM | > 100 µM | > 100 µM | > 100 µM | > 100 µM | > 100 µM | > 100 µM | > 100 µM | – | – | – | – | – | – | – | – | – | – | –
2 | O=c1c2ccccc2c(C=NCCNCCO)c2oc3ccccc3n12 | 33.6 µM | – | 15.5 µM | 19.5 µM | 9.61 µM | 16.5 µM | 17 µM | 16.1 µM | 24 µM | 19.5 µM | 4.08 µM | 6.24 µM | 10.4 µM | 22.1 µM | 2.73 µM | 3.33 µM | 4.63 µM | 1.47 µM | 7.64 µM | –
3 | COc1cccc(NC(=O)c2ccc(C(F)(F)F)nc2Nc2ccc(Cl)cc2C)c1 | 20 µM | 22.9 µM | 17.1 µM | 24.2 µM | – | 22.1 µM | 28.7 µM | 34.4 µM | 22.2 µM | 6.45 µM | 2.76 µM | 11.9 µM | – | – | – | 10.2 µM | 14.5 µM | 11.1 µM | 10.5 µM | 10.9 µM
4 | N#CC(C(=N/NC(N)=S)/C(=N\NC(N)=S)C(C#N)c1ccccc1)c1ccccc1 (stereo not drawn) | > 10 µM | > 10 µM | – | > 10 µM | > 10 µM | > 10 µM | > 10 µM | > 10 µM | – | – | – | – | – | > 10 µM | – | – | – | – | – | –
5 | CN1CCN(c2ccc3nc(-c4ccc5nc(-c6ccc(C(F)(F)F)cc6)[nH]c5c4)[nH]c3c2)CC1 | 3.5 µM | 2.6 µM | 15.7 µM | 3.04 µM | – | 3.13 µM | 3.09 µM | 3.68 µM | 21.7 µM | 1.71 µM | 2.97 µM | 1.62 µM | 1.74 µM | 3.27 µM | – | 1.41 µM | 1.47 µM | 1.56 µM | 6.13 µM | 1.28 µM
6 | CC[O+]=c1cccc2ssnc1-2 | – | > 100 µM | > 100 µM | > 100 µM | > 100 µM | > 100 µM | > 100 µM | > 100 µM | > 100 µM | – | – | – | – | > 100 µM | – | – | – | – | – | –
7 | COc1cc([N+](=O)[O-])c(S(=O)(=O)O)cc1-n1nc(-c2ccccc2)n[n+]1-c1cc(S(=O)(=O)[O-])c([N+](=O)[O-])cc1OC | > 100 µM | > 100 µM | > 100 µM | > 100 µM | – | > 100 µM | > 100 µM | > 100 µM | > 100 µM | – | – | – | – | > 100 µM | – | – | – | – | – | –
8 | CC1=C(CC/C(C)=C/CCC2(C)CCC([C@H](C)C(=O)O)OO2)C(C)(C)CCC1 (stereo partly drawn) (tested in a mixture with another compound) | > 100 µM | > 100 µM | > 100 µM | > 100 µM | > 100 µM | > 100 µM | > 100 µM | – | – | – | – | – | – | > 100 µM | – | – | – | – | – | –
9 | CCc1nc2cc(/C=C/C(=O)NO)c(F)cc2c(=O)n1CCc1ccccc1 | 4.32 µM | 2.91 µM | 6.2 µM | 3.18 µM | 5.49 µM | 12.5 µM | 13.9 µM | > 100 µM | – | 1.17 µM | 0.822 µM | 0.872 µM | 2.14 µM | 15.5 µM | 0.881 µM | 0.588 µM | 0.619 µM | 0.564 µM | – | 0.313 µM
